What was measured:
[1] = molecular target: T1, GPR35 (Homo sapiens, UniProt Q9HC97); experiment: Ca2+ mobilization assay (Fluo-4) in HEK-GPR35-Gqo5 cells; assay type: cell-based
T1 construct: myc; expressed in transfected cells; host or cells: HEK293, transient co-transfection (Lipofectamine LTX)

[2] = tested on: GPR35; experiment: DMR desensitization / antagonism mode against GPR35 agonist-induced DMR in HT29 cells; assay type: cell-based, human; details: HT29 cells pretreated with compound, then GPR35 agonist
[3] = molecular target: hERG channel (Homo sapiens, UniProt Q12809)
[4] = tested on: hERG channel

T1 sequence (Q9HC97 whole entry): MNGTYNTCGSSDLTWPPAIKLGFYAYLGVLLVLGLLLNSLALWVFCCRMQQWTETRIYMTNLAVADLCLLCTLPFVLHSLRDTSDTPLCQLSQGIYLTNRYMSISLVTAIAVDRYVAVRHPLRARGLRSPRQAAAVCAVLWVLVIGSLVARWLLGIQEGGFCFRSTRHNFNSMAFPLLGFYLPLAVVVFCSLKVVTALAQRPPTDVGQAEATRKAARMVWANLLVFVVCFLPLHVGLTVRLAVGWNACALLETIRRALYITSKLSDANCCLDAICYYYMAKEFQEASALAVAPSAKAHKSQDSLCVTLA
Chain of hERG channel (Homo sapiens, UniProt Q12809) (Q12809 whole entry): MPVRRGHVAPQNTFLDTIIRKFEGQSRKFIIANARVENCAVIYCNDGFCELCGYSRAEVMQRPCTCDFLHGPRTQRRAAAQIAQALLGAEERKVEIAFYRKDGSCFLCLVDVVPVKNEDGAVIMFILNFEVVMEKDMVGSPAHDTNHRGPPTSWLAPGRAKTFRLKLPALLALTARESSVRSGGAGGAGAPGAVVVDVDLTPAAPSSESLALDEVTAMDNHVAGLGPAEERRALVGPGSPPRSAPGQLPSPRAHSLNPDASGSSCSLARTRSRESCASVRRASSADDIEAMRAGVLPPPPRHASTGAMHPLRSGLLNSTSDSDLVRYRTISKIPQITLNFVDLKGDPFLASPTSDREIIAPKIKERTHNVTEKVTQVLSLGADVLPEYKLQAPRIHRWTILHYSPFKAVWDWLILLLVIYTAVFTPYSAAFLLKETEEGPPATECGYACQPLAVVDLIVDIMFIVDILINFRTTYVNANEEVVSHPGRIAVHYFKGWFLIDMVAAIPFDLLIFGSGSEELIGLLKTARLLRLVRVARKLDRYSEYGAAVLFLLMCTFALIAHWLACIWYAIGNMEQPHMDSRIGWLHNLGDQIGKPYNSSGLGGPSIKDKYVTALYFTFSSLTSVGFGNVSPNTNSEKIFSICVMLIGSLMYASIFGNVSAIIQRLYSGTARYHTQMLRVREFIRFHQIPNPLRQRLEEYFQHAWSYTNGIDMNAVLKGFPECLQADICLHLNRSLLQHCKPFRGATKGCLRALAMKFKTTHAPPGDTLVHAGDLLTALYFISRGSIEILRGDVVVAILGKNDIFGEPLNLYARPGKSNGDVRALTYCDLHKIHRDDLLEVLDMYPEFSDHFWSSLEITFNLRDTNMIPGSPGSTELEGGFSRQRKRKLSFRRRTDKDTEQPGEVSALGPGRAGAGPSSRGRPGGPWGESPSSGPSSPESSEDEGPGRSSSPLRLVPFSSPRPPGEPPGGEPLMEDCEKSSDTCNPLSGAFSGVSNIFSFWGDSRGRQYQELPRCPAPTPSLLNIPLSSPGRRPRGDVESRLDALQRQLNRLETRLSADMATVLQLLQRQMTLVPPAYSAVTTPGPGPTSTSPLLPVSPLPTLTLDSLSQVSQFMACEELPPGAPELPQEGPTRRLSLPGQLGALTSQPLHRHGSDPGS

O=[N+]([O-])c1cc2nc(O)c(O)nc2cc1[N+](=O)[O-] [DNQX]
Ca2+ moblization (HEK-GPR35-Gqo5) ([1]; HEK293 cells co-expressing GPR35 and Gqo5, Fluo-4, compounds 10 μM): active
Ca2+ mobilization signal in cells co-expressing GPR35 and Gqo5 ([1]; engineered HEK293, 10 μM): active
Desenstization to GPR35 agonist [2]: desenstized
Electrophysiology (HEK-hERG) [3]: inactive
Desenstization to hERG activator [4]: partially desenstized

Reference: patent US20120022116A1, “COMPOSITIONS AND METHODS FOR THE TREATMENT OF PATHOLOGICAL CONDITION(S) RELATED TO GPR35 AND/OR GPR35-HERG COMPLEX” (priority 2010, published 2012)
